Data published in patent US10351553B2, “Potassium channel modulators” (Cadent Therapeutics, Inc., priority 2017, dated 2019).
Converted amounts (≈) assume the structure as drawn.

Key:
[1] = biological target: T1, CYP2D6 (Homo sapiens, UniProt P10635); assay: CYP inhibition in human liver microsome, CYP2D6 (Bufuralol); format: in vitro ADME
T1 construct: Matrix: Human Liver Microsome (Invitrogen, life technologies); tissue Invitrogen, life technologies; host or cells: human liver microsomes
Procedure: (§1) Compounds described herein were tested for CYP inhibition across 5 isoforms (3A4, 2D6, 2C9, 2C19 & 1A2). In this assay, CYP isoform specific substrates are incubated with human liver microsome (HLM) in the presence of test compounds, and metabolite formation is determined. Percentage inhibition of metabolite formation at different concentrations of test compound is calculated and IC50 is determined. Conditions used in the assay are summarized below. Results are shown in Table 2. • Test drug (Inhibitor) Concentration: 8 different concentrations (100 μM to 0.005 μM) • Matrix: Human Liver Microsome (Invitrogen, life technologies) • Specific probe substrates will be used for the isoforms as given below: • CYP3A4: Midazolam • CYP2D6: Bufuralol • CYP2C9: Diclofenac • CYP2C19: Mephynitoin • CYP1A2: Phenacetin • Cofactors: NADPH (1 mM final in assay) • Sample Analysis: LC-MS/MS (metabolites) • Specific reference inhibitors included in all assays (Ketoconazole/Quinidine/Sulphaphenazole/Ticlopidine/Furafylline) • Buffer: Potassium Phosphate Buffer (100 mM) pH 7.4 • DMSO level in assay: 0.1% • Data analysis: % Inhibition over control

[2] = Metabolic stability in liver microsomes, human; format: in vitro ADME; conditions: % remaining at 1 hour; 1 μM
Procedure: (§2) Metabolic stability profiling of the compounds was performed in liver microsomes. In this assay, test compound is incubated with liver microsomes in the presence of NADPH for 2 time points at 37° C. At the end of incubation, reaction is quenched with acetonitrile containing internal standard and the parent compound remaining is determined by LC-MS/MS. Conditions used in the assay are summarized below. […], 37° C. • Test concentration: 1 μM in 0.02% DMSO at pH 7.4 (n=2) • NADPH concentration in assay: 1 mM • Liver microsome protein concentration in assay: 0.5 mg/ml • Analysis: LC-MS/MS • Data reported: % Parent Compound Remaining (% PCR) • Reference compounds for high and low clearance are included • Species tested: mouse, rat, dog, monkey, and human

[3] = Aqueous (kinetic) solubility, shake-flask, phosphate buffer pH 7.4; format: physicochemical; conditions: 23 °C, kinetic from dmso stock, phosphate buffer pH 7.4, 16 hours at room temperature
Procedure: Aqueous solubility (kinetic solubility) tests of the compounds were performed in phosphate buffer saline (pH 7.4) measured by shake-flask method. In this assay, DMSO stock solution of test compound is added to buffer followed by equilibration (shaking), filtration and determination of soluble amount by HPLC-UV Conditions used in the assay are summarized below.

[4] = Metabolic stability in liver microsomes, dog; format: in vitro ADME; conditions: % remaining at 1 hour; 1 μM
Procedure: as §2

[5] = biological target: T2, SK2 channels (Homo sapiens, UniProt Q9H2S1); assay: Whole-cell patch-clamp of SK2 current in HEK293 cells expressing SK2 channels; format: cell-based; conditions: for SK2 potency (SC100): Table 2, concentration that produces doubling of channel current, averages from later experiments
T2 construct: expressed in transfected cells; host or cells: HEK293
Procedure: The biological activity was determined as follows. The ionic current through small-conductance Ca^2+-activated K^+ channels (SK channels, subtype 2) was measured using the whole-cell configuration of the patch-clamp technique in a patch-clamp set-up using HEK293 tissue culture cells expressing SK2 channels as described in Hougaard et al., British Journal of Pharmacology 151, 655-665, May 8, 2007, the entire teachings of which are incorporated herein by reference. In one aspect, a compound is defined to be an SK Positive Allosteric Modulator (PAM) if the compound increases current in this assay, for example, if the SC100 value of the compound is less than or equal to 10 μM as determined by this assay. The SC100 value is defined to be the concentration of compound that increases the basal current by 100%.

[6] = Metabolic stability in liver microsomes, monkey; format: in vitro ADME; conditions: % remaining at 1 hour; 1 μM
Procedure: as §2

[7] = Metabolic stability in liver microsomes, rat; format: in vitro ADME; conditions: % remaining at 1 hour; 1 μM
Procedure: as §2

[8] = Metabolic stability in liver microsomes, mouse; format: in vitro ADME; conditions: % remaining at 1 hour; 1 μM
Procedure: as §2

[9] = biological target: T3, hERG (Homo sapiens, UniProt Q12809); assay: Cardiac potassium channel hERG assay, whole-cell patch clamp in HEK-293 cells; format: cell-based; conditions: HEK-293 cells stably transfected with hERG; read-out: hERG inhibition (IC50)
T3 construct: host or cells: HEK-293
T3 sequence (Q12809 whole entry): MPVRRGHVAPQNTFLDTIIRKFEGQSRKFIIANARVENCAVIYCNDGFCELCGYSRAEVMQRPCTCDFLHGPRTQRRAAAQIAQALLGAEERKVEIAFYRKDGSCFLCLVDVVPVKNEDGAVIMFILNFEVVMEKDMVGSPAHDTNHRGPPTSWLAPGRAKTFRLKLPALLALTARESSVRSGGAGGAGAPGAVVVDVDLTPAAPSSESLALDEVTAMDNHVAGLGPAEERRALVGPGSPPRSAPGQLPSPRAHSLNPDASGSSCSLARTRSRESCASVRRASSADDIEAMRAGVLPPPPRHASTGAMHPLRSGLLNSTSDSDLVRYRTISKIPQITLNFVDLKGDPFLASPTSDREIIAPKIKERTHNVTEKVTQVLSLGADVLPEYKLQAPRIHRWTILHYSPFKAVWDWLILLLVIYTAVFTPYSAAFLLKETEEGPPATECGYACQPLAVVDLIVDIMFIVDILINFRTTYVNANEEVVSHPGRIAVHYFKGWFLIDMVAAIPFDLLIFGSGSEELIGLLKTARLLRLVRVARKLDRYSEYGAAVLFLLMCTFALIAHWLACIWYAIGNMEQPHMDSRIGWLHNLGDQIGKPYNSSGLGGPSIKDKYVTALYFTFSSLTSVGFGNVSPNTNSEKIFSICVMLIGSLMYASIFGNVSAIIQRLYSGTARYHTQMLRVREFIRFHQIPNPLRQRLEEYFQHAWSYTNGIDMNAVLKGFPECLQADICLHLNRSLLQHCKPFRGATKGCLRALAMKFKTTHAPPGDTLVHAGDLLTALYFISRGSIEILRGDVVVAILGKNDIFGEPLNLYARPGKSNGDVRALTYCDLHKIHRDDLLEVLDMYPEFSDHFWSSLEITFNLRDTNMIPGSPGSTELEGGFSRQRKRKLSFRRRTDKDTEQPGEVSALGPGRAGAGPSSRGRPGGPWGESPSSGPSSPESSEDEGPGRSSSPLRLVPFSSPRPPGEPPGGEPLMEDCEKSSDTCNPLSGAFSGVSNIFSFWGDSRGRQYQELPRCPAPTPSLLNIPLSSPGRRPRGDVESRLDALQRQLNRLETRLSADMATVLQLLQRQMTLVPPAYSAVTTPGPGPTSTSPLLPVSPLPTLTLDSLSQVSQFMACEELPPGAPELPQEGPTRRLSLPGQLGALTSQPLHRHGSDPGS
Procedure: Compounds were tested in a cardiac potassium channel hERG assay. hERG is responsible for a rapid delayed rectifier current (IKr) in human ventricles. Inhibition of IKr is the most common cause of cardiac action potential prolongation by non-cardiac drugs. See e.g., Brown, A. M. and Rampe, D. (2000). Drug-induced long QT syndrome: is HERG the root of all evil? Pharmaceutical News 7, 15-20.
HEK-293 cells were stably transfected with hERG cDNA. Stable transfectants were selected by coexpression with the G418-resistance gene incorporated into the expression plasmid. Selection pressure was maintained by including G418 in the culture medium. Cells were cultured in Dulbecco's Modified Eagle Medium/Nutrient Mixture F-12 (D-MEM/F-12) supplemented with 10% fetal bovine serum, 100 U/mL penicillin G sodium, 100 μg/mL streptomycin sulfate and 500 μg/mL G418. Cell culture records are kept on file at Charles River Laboratories. […]
Onset and steady state inhibition of hERG current was measured using a pulse pattern with fixed amplitudes (conditioning prepulse: +20 mV for 2 s; test pulse: −50 mV for 2 s) repeated at 10 s intervals, from a holding potential of −80 mV. Peak tail current was measured during the 2 s step to −50 mV.
One test article concentration was applied to each cell (n=3). Peak current was measured during the test ramp. […] Peak current was measured until a new steady state was achieved.

[10] = biological target: T4, CYP3A4 (Homo sapiens, UniProt P08684); assay: CYP inhibition in human liver microsome, CYP3A4 (Midazolam); format: in vitro ADME
T4 construct: Matrix: Human Liver Microsome (Invitrogen, life technologies); tissue Invitrogen, life technologies; host or cells: human liver microsomes
T4 sequence (P08684 whole entry): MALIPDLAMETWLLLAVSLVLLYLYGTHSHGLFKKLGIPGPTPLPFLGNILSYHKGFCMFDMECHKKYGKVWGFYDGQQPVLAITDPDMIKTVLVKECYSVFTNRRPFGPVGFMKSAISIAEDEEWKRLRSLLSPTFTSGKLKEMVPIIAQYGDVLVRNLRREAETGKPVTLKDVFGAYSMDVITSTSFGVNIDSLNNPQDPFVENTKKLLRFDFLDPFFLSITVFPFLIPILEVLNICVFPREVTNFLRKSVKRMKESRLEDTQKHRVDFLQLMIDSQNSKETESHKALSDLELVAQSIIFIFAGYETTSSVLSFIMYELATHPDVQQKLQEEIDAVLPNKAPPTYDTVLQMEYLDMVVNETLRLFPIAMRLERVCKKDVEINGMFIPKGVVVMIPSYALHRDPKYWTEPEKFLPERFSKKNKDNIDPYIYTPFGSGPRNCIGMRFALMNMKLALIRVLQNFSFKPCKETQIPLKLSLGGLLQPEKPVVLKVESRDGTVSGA
Procedure: as §1

T1 sequence (P10635 whole entry): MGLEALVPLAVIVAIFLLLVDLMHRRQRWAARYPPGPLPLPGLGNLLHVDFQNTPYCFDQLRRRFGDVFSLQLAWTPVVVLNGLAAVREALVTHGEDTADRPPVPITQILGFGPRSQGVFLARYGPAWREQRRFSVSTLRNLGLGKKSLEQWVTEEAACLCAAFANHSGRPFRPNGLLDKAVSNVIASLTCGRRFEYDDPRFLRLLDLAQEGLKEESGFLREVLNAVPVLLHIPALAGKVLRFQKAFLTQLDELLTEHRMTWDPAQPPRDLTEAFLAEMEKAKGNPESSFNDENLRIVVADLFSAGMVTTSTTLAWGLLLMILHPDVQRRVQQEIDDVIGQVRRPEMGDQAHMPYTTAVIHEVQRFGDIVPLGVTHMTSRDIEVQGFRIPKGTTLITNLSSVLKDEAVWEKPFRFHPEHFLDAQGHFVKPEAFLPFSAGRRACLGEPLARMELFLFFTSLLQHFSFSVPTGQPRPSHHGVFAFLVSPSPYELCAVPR

Row | Compound | IC50 [1] | Liver microsome stability, Human [2] | solubility kinetic at 16 h [3] | Liver microsome stability, Dog [4] | SK2 potency (SC100) [5] | Liver microsome stability, Monkey [6] | Liver microsome stability, Rat [7] | Liver microsome stability, Mouse [8] | IC50 [9] | IC50 [10] | Measured SK2 SC100 ([5]; Table 1, concentration that increases the basal current by 100%)
1 | Cc1cc(NC2CCCCC2)nc(-n2nc(C)cc2C)n1 [Comparator A, reference compound] | 0.79 µM | 50% | 17 µg/mL (≈ 59.6 µM) | 2% | 1.38 µM | 1% | 1% | 1% | > 10 µM | > 10 µM | 
2 | Cc1ccn(-c2nc(NC3CCC(F)(F)CC3)cc(N3CCOCC3)n2)n1 [Compound 1, N-(4,4-difluorocyclohexyl)-2-(3-methyl-1H-pyrazol-1-yl)-6-morpholinopyrimidin-4-amine] | > 10 µM | 84% | 74 µg/mL (≈ 196 µM) | 54% | 0.4 µM | 46% | 60% | 47% | > 10 µM | > 10 µM | 0.5 µM
